Reference: patent US11331299B2, “Medicinal use of serrulatane diterpenes” (The University of Sydney, priority 2016, dated 2022)

Tests used:
[1] = biological target: T1, KAT2A (GCN5L2) (h) bromodomain (Homo sapiens, UniProt Q92830); assay: Epigenetic binding assay, Bromodomain; conditions: for inhibition at 10 µM: read-out: % Inhibition of Control Specific Binding
T1 construct: Bromodomain
T1 sequence (Q92830 728-832 limits assumed): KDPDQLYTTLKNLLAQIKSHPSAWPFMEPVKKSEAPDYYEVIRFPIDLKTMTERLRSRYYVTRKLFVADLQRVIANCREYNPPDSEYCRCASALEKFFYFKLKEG

CBX1 (h) chromodomain = biological target: T2, CBX1 (h) chromodomain (Homo sapiens, UniProt P83916); assay: Epigenetic binding assay, Chromodomain; conditions: read-out: % Inhibition of Control Specific Binding
T2 construct: Recognition and specificity determinants of the human cbx chromodomains; Eurofins CEREP (France), contract laboratory
T2 sequence (P83916 21-79 limits assumed): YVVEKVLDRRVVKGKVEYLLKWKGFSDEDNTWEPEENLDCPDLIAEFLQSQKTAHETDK

JARID1A (h) = JARID1A (h) (Homo sapiens, UniProt P29375); assay: Epigenetic enzyme assay, Demethylases (KDMs); format: biochemical; conditions: for inhibition at 10 µM: read-out: % Inhibition of Control Values
Sequence of JARID1A (h) (P29375 whole entry): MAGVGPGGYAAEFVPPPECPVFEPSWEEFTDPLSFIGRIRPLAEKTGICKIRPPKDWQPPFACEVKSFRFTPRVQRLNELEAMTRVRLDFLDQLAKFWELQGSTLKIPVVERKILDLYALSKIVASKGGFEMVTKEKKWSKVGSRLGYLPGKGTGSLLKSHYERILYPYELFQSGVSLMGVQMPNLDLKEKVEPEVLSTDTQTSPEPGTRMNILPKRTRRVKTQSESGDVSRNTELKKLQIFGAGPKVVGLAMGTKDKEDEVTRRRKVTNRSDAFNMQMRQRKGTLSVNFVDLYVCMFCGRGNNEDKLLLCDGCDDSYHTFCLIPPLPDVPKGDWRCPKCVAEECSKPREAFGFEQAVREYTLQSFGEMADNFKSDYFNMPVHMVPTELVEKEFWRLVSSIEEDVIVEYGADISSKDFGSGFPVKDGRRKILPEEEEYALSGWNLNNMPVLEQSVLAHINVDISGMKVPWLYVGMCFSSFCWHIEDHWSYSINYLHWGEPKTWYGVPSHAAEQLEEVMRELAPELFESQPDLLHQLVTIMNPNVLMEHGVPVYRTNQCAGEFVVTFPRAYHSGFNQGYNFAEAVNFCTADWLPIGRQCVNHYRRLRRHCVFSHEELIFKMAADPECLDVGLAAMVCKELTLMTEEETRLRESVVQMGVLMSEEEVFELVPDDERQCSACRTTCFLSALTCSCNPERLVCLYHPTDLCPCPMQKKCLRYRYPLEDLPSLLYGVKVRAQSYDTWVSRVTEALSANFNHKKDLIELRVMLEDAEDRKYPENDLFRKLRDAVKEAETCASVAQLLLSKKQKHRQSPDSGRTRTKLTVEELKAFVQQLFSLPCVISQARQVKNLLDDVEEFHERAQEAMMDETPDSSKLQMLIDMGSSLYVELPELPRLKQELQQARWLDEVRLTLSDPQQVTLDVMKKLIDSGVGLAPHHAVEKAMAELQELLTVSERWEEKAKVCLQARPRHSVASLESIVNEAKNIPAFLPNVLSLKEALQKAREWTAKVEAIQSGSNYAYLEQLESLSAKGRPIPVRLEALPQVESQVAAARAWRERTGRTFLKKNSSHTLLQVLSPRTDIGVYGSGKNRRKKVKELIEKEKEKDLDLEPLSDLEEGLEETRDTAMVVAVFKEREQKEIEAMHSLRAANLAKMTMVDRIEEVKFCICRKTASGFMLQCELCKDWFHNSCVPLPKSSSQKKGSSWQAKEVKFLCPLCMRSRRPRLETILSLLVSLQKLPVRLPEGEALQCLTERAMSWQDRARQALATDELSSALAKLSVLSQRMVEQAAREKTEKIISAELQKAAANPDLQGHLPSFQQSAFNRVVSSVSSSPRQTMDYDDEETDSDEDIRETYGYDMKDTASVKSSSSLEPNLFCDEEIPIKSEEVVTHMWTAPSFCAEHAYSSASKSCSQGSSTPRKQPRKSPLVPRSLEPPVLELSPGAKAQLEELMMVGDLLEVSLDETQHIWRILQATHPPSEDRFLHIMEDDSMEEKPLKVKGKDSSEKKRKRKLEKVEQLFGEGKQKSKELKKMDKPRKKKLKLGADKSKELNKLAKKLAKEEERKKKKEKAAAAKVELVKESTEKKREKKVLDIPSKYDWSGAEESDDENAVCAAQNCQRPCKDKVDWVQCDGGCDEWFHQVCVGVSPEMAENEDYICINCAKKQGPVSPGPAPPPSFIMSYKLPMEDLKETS

DNMT3b = DNMT3b (Homo sapiens, UniProt Q9UBC3); assay: Epigenetic enzyme assay, DNA methyltransferases (DNMTs); format: biochemical; conditions: for inhibition at 10 µM: read-out: % Inhibition of Control Values
HDAC6 (h) = biological target: T3, HDAC6 (h) (Homo sapiens, UniProt Q9UBN7); assay: Epigenetic enzyme assay, Histone deacetylase (HDACs); format: biochemical; conditions: read-out: % Inhibition of Control Values
T3 sequence (Q9UBN7 1-1215): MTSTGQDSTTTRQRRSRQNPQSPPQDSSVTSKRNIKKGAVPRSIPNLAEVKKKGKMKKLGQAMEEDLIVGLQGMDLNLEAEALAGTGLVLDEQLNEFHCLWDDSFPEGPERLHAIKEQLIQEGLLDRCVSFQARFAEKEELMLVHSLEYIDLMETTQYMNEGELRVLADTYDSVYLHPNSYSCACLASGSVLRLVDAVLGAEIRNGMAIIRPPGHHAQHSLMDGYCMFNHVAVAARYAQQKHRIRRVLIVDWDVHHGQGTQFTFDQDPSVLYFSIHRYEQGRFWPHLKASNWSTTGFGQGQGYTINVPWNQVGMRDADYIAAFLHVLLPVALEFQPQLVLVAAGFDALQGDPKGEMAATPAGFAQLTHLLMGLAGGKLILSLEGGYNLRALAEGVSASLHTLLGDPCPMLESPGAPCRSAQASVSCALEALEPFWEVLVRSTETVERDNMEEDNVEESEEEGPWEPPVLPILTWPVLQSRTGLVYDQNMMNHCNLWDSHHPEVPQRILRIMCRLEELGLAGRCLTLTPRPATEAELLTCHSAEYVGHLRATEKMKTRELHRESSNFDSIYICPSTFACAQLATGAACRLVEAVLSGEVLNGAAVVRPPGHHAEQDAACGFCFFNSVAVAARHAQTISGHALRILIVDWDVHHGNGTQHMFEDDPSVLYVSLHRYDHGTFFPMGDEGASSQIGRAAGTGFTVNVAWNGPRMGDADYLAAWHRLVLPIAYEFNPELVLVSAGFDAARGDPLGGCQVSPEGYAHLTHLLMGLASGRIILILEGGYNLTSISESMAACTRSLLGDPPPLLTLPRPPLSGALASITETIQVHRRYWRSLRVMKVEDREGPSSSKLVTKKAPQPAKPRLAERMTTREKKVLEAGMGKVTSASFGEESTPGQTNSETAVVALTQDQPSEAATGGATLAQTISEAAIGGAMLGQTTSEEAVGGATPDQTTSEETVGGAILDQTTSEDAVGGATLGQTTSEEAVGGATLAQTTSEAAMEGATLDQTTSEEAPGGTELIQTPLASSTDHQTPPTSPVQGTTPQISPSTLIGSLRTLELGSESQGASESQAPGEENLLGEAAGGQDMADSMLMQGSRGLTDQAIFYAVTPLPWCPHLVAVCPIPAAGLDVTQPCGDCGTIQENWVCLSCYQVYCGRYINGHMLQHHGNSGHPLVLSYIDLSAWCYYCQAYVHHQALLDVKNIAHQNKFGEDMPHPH

[2] = biological target: T4, sirtuin 2 (h) (inhibitor effect) (Homo sapiens, UniProt Q8IXJ6); assay: Epigenetic enzyme assay, Sirtuins; format: biochemical; conditions: 10 μM; read-out: % Inhibition of Control Values
T4 sequence (Q8IXJ6 1-389): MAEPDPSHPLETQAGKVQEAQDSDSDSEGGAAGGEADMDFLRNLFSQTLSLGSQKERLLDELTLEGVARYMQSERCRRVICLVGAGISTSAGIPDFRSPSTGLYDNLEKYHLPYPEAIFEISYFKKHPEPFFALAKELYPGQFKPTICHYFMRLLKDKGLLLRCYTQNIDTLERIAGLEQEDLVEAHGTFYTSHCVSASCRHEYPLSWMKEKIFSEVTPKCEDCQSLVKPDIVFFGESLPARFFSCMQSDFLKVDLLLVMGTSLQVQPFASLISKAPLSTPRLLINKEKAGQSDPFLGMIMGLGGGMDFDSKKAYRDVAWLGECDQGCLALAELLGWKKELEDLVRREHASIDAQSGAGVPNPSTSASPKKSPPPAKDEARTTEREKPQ

PRMT1 (h) = PRMT1 (h) (Homo sapiens, UniProt Q99873); assay: Epigenetic enzyme assay, Methyltransferases (MTs); format: biochemical; conditions: read-out: % Inhibition of Control Values
Sequence of PRMT1 (h) (Q99873 whole entry): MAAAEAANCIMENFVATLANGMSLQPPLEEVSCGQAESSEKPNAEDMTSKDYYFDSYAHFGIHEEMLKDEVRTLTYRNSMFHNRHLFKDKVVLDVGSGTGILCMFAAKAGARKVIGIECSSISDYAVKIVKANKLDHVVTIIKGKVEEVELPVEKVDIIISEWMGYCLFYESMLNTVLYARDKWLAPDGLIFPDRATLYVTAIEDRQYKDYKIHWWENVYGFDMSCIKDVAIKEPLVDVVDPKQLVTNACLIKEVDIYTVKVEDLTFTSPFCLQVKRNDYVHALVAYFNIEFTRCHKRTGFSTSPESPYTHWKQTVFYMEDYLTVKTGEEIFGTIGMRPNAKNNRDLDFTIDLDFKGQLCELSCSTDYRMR

[3] = biological target: Aurora B (h) (substrate histone H3 full length) (Homo sapiens, UniProt Q96GD4); assay: Epigenetic enzyme assay, Kinases; format: biochemical; conditions: read-out: % Inhibition of Control Values
Sequence of Aurora B (h) (substrate histone H3 full length) (Q96GD4 whole entry): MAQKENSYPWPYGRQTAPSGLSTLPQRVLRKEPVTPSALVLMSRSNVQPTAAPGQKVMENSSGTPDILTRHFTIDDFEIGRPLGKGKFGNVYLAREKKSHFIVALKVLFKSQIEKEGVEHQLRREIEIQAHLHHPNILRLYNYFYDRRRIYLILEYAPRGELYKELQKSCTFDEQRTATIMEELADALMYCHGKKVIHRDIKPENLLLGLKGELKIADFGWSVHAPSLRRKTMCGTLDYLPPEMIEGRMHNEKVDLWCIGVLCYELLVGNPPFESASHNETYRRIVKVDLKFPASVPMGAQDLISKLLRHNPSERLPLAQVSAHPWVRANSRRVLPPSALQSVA

Chemokine CCR1 = biological target: T5, Chemokine CCR1 (Homo sapiens, UniProt P32246); assay: Chemokine CCR1 radio ligand binding; conditions: assay year 2015, read-out: % Control Response
T5 construct: expressed in transfected cells; host or cells: Chem-2 cells
T5 sequence (P32246 1-355): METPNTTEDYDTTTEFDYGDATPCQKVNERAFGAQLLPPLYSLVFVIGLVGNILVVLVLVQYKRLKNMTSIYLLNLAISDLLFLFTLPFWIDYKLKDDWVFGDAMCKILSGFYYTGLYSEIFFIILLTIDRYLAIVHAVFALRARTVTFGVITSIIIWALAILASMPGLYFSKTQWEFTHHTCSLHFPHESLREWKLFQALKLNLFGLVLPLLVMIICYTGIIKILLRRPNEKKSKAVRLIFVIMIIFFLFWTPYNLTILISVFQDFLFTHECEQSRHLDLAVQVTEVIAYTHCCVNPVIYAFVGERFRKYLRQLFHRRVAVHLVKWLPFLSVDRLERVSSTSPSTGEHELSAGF
Procedure: The in vitro pharmacological studies were conducted by Eurofins PanLab (Taiwan) using the parameters shown in Table 13 with respect to appropriate literature references.

SW480 = assay: OncoPanel cell proliferation assay (10-day); format: cell-based, human; conditions: for EC50 / GI50 / IC50: Homo sapiens, SW480, Colon; for EC50: read-out: Cell Count EC50; for GI50: read-out: Cell Count GI50; for IC50: read-out: Cell Count IC50

| Structure (SMILES) | inhibition at 10 µM ([1]; 10 μM) [%] | inhibition at 10 µM (CBX1 (h) chromodomain) [%] | inhibition at 10 µM (JARID1A (h); 10 μM) [%] | inhibition at 10 µM (DNMT3b) [%] | inhibition at 10 µM (HDAC6 (h)) [%] | inhibition at 10 µM [2] [%] | inhibition at 10 µM (PRMT1 (h)) [%] | inhibition at 10 µM [3] [%] | remaining activity at 10 µM (Chemokine CCR1) [%] | EC50 (SW480) [µM] | GI50 (SW480) [µM] | IC50 (SW480) [µM] | further results |
| --- | --- | --- | --- | --- | --- | --- | --- | --- | --- | --- | --- | --- | --- |
| CC(C)=CCC[C@H](CO)[C@@H]1CC[C@@H](C)c2c1cc(C)c(O)c2O [Compound 1, 7,8,18-trihydroxyserrulat-14-ene] | 76 | 15 | 64 | -3 | 12 | -4 | 16 | 6 | 33 | 1.21 | 1.2 | 1.21 | % Inhibition of Control Specific Binding ([1]; 10 μM): significant inhibitory activity; IC50 ([1]; Table 9, inhibition/concentration-response curve, read-out: IC50): 3.9 µM; % Inhibition of Control Values (JARID1A (h); 10 μM): significant inhibitory activity; IC50 (JARID1A (h); Table 11, inhibition/concentration-response curve, read-out: IC50): 9.6 µM; Relative cell count (%) Mean (SW480; SW480, 3.00E+00 microM): 4.1%; Relative cell count (%) Mean (SW480; SW480, 3.00E+01 microM): 0.4%; Relative cell count (%) Mean (SW480; SW480, 3.01E−01 microM): 93.5%; Relative cell count (%) Mean (SW480; SW480, 3.01E−02 microM): 99.5%; Relative cell count (%) Mean (SW480; SW480, 3.02E−03 microM): 116.5%; Relative cell count (%) Mean (SW480; SW480, 9.49E+00 microM): 0.2%; Relative cell count (%) Mean (SW480; SW480, 9.51E−01 microM): 69.9%; Relative cell count (%) Mean (SW480; SW480, 9.52E−02 microM): 94.1%; Relative cell count (%) Mean (SW480; SW480, 9.53E−03 microM): 103.7%; Relative cell count (%) Mean (SW480; SW480, 9.55E−04 microM): 111.8% |
| CC(C)=CCC[C@@H]1C(O)Oc2c(C)cc(O)c3c2[C@H]1CC[C@H]3C (stereo partly drawn) [Compound 2, 5,18-epoxyserrulat-14-en-8,18-diol] | 19 | 0 | -9 | -17 | 2 | 6 | 26 | 4 | -3 | 10.1 | 9.93 | 10.1 |  |
| CC(C)=CCC[C@@H]1COc2c(C)cc(O)c3c2[C@H]1CC[C@H]3C [Compound 3, 5,18-epoxy-8-hydroxyserrulat-14-ene] | 18 | -1 | 3 | -4 | -18 | -19 | -1 | -1 | -5 |  |  |  |  |
| CC(C)=CCC[C@H](C)[C@@H]1CC[C@@H](C)c2c1cc(C)c(O)c2O [Compound 4, 7,8-dihydroxyserrulat-14-ene] |  |  |  |  |  |  |  |  |  | 12.3 | 12.3 | 12.3 |  |
| Nc1ncnc2c1ncn2[C@@H]1O[C@H](CSCC[C@H](N)C(=O)O)[C@@H](O)[C@H]1O [SAH] |  |  |  |  |  |  |  |  |  |  |  |  | IC50 (DNMT3b; read-out: Reference IC50): 0.094 µM |
